Experiments:
[1] = system: SCC2095 cells; assay: Cell viability (MTT) assay, SCC2095; assay type: cell-based; settings: Homo sapiens, 48 h, human oral cancer cells, read-out: IC50 of cytotoxicity SCC2095
Description: Human breast cancer MDA-MB-231 cells and gastric cancer SCM-1 cells were purchased from the American Type Culture Collection (Manasas, VA, USA). SCC2095 human oral cancer cells were kindly provided by Professor Susan R. Mallery (The Ohio State University).
(§1) To assess cell viability, cells were seeded in three replicates into 96-well plates at a density of 5×10^3/well for 24 h following incubation with compounds at the indicated concentrations. Then, cell viability was assessed with 3–(4,5-dimethylthiazol-2-yl)-2,5-diphenyltetrazolium bromide (MTT) solution (0.5 mg/mL) for 4h as described previously. After removing the medium, 200 µL of DMSO was added, and then the absorbance was measured at 570 nm using a plate reader (BMG LABTECH, Germany).

[2] = system: MDA-MB-231 cells; assay: Cell viability (MTT) assay, MDA-MB-231; assay type: cell-based; settings: human breast cancer cells, read-out: IC50 of cytotoxicity MDA-MB-231
Excerpt: (§2) Human breast cancer MDA-MB-231 cells and gastric cancer SCM-1 cells were purchased from the American Type Culture Collection (Manasas, VA, USA). SCC2095 human oral cancer cells were kindly provided by Professor Susan R. Mallery (The Ohio State University). Normal human lung fibroblasts (NHLFs; CC-2512) were purchased from the Lonza (Walkersville, MD, USA). SCM-1 cells were maintained in RPMI-1640 medium (Invitrogen, Carlsbad, CA, USA); MDA-MB-231 and SCC2095 cells were maintained in DMEM/F12 (Invitrogen); and NHLFs were maintained in FGM™-2 medium (Lonza) with 2% serum, supplemented with 10% heat-inactivated foetal bovine serum (FBS; Gibco, Grand Island, NY, USA). All cells were cultured at 37 °C in a humidified incubator containing 5% CO2 and 95% relative humidity.
as §1

[3] = system: SCC2095, MDA-MB-231 and SCM-1 cells; assay: Cell viability (MTT) assay, cancer cell lines (summary); assay type: cell-based; settings: Homo sapiens; SCC2095, MDA-MB-231, SCM-1; read-out: IC50 of cytotoxicity, range over cancer cell lines
Excerpt: as §2, §1

[4] = system: SCC2095 cells; assay: Western blotting of caspase- and HDAC-related proteins; assay type: cell-based, human; settings: western blot
Description: The protein expression was performed as previously described. Proteins were resolved on 10% SDS-PAGE, then transferred to PVDF (Bio-Rad) membranes. After blocking with 5% skimmed milk in PBS containing 0.1% Tween 20, the membranes were probed with primary antibodies against interest target proteins at 4 °C overnight. The following primary antibodies were used: […], cleaved caspase 9, acetyl α-tubulin, Hsp90, Histone H2A.X, p38, p-^180Thr/^182Tyr p38, PPARγ, and p21 were purchased from Cell Signalling Technologies (Beverly, MA, USA); pro-caspase 8, Millipore; β-actin, Sigma-Aldrich (St. Louis, MO, USA). Then, the immunoblots were washed and exposed to HRP-conjugated secondary antibodies at room temperature for 1 h. The immunoblots were examined by enhanced chemiluminescence.

[5] = system: SCC2095 cells; assay: ROS determination by flow cytometry (DCFH-DA probe); assay type: cell-based, human; settings: SCC2095, 12 h or 24 h
Description: Cells (2 × 10^5) were treated with tested compounds in 6-well plates for 24 h or 48 h, then washed with ice-cold PBS twice and harvested with trypsin. Cells were incubated with 5 µL Annexin V- FITC/PI (BD Pharmingen, San Diego) for 15 min in the dark condition. Then, the cells were measured by BD FACSCanto flow cytometer (BD, Franklin Lakes, NJ). For ROS determination, DMSO or H2O2 or compound 7 g-treated cells were stained with the ROS probe (DCFH-DA; 5 µM) and detected the DCFH-DA fluorescence.

[6] = molecular target: T1, HDAC6 (Homo sapiens, UniProt Q9UBN7); assay: HDAC inhibition assay, HDAC6
T1 sequence (Q9UBN7 1-1215): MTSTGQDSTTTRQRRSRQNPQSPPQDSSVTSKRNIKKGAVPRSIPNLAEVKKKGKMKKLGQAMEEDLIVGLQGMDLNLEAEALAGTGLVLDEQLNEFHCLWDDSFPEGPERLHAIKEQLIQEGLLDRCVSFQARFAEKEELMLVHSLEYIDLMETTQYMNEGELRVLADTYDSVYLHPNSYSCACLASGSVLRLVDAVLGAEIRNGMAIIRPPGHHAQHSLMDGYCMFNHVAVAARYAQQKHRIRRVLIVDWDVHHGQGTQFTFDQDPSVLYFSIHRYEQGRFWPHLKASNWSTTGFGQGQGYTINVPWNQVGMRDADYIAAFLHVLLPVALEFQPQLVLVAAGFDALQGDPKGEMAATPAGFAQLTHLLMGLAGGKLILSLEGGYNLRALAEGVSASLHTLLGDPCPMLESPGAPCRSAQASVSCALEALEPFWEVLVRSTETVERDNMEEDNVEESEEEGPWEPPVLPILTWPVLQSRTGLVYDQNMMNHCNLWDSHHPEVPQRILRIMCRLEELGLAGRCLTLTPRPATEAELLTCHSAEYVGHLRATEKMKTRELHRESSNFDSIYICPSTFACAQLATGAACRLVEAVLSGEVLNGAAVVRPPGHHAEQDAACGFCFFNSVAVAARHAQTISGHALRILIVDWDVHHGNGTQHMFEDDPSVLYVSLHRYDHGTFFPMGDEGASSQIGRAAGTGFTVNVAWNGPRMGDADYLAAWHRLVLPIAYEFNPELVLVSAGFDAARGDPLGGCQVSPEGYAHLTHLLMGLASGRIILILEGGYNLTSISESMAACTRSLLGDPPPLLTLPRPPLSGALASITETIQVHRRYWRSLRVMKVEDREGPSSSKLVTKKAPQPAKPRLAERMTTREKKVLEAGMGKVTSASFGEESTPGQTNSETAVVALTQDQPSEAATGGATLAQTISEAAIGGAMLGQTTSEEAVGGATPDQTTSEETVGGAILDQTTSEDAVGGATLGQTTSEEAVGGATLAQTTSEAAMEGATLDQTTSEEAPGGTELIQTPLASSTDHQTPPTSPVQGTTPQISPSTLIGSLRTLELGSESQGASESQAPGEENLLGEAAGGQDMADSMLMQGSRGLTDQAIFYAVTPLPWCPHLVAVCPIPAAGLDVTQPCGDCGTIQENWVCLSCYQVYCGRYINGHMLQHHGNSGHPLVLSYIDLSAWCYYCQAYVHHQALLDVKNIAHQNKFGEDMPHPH

[7] = system: HeLa nuclear HDACs; assay: HDAC inhibition assay, HeLa nuclear extract (mixture of class I HDACs 1, 2, and 3); settings: read-out: IC50 HeLa nuclear HDACs, Boc-Lys-(AMC) substrate

`NC(=NO)c1ccc2c(c1)N(Cc1ccc(C(=O)NO)c(-c3ccccc3)c1)c1ccccc1S2` [Compound 7g, N-Hydroxy-4-[2-(N’-hydroxycarbamimidoyl)-10H-phenothiazin-10-yl]methyl-2-phenylbenzamide] showed an IC50 [1] of 3000 ± 300 nM, an IC50 [2] of 8.4 ± 2.7 µM and an IC50 [3] of 3 to 8.4 µM. For the same compound, the “levels of Hsp90” value ([4]; SCC2095, 24 h) was “increased”, the “levels of PPARγ” value ([4]; SCC2095, 24 h) was “increased” and the “levels of cleaved caspase 9” value ([4]; SCC2095, 24 h) was “up-regulated”. The “levels of p21” value ([4]; SCC2095, 24 h) was “increased”, the “levels of pro-caspase 8” value ([4]; SCC2095, 24 h) was “down-regulated” and the “phosphorylation of Histone H2A.X” value ([4]; SCC2095, DNA damage biomarker) was “increased”. The “phosphorylation of p38” value ([4]; SCC2095, dose-dependent) was “up-regulated”, the ROS generation [5] was “increased” and the IC50 [6] was 970 ± 50 nM. For the same compound, the IC50 [7] was greater than 40 µM.

Reference: article PMC11423540, “Synthesis and biological evaluation of ortho-phenyl phenylhydroxamic acids containing phenothiazine with improved selectivity for class IIa histone deacetylases” (Journal of Enzyme Inhibition and Medicinal Chemistry, 2024)
